# Laboratory results: patent US10975056B2 (GlaxoSmithKline Intellectual Property Development Limited, priority 2016, dated 2021)
# Read-outs that look alike come from different tables or passages of the source.
# Tests used:
# DNMT1 = DNMT1 (Homo sapiens, UniProt P26358); assay: DNMT1 biochemical activity, breaklight assay and/or SPA assay
# [1] = test system: erythroid progenitor cells (EPCs); assay: Fetal hemoglobin (HbF) ELISA in day 7 erythroid progenitor cells; format: cell-based, human; conditions: Homo sapiens, Erythroid progenitor cell, HbF ELISA, day 7 EPCs, 5 days; read-out: EPC ELISA (pEC50 category) (converted);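 also: for fetal hemoglobin induction normalized to vehicle-treated cells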
# Method in brief: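 Day 7 EPCs from human bone marrow CD34+ cells were plated at 1,000 cells/well in media with 3 U/mL rhEPO. They were exposed to a 22-point dilution ([…]) for 5 days at 37 °C. Lysate HbF was measured by sandwich ELISA (OD450) and normalized to DMSO control wells.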
# [2] = binned activity in either the breaklight or the SPA assay
# [3] = binned activity in either the breaklight or the SPA assay, read-out: DNMT1 BioChemical (pIC50 category) (converted)
# DNMT1, sequence (P26358 whole entry, looked up): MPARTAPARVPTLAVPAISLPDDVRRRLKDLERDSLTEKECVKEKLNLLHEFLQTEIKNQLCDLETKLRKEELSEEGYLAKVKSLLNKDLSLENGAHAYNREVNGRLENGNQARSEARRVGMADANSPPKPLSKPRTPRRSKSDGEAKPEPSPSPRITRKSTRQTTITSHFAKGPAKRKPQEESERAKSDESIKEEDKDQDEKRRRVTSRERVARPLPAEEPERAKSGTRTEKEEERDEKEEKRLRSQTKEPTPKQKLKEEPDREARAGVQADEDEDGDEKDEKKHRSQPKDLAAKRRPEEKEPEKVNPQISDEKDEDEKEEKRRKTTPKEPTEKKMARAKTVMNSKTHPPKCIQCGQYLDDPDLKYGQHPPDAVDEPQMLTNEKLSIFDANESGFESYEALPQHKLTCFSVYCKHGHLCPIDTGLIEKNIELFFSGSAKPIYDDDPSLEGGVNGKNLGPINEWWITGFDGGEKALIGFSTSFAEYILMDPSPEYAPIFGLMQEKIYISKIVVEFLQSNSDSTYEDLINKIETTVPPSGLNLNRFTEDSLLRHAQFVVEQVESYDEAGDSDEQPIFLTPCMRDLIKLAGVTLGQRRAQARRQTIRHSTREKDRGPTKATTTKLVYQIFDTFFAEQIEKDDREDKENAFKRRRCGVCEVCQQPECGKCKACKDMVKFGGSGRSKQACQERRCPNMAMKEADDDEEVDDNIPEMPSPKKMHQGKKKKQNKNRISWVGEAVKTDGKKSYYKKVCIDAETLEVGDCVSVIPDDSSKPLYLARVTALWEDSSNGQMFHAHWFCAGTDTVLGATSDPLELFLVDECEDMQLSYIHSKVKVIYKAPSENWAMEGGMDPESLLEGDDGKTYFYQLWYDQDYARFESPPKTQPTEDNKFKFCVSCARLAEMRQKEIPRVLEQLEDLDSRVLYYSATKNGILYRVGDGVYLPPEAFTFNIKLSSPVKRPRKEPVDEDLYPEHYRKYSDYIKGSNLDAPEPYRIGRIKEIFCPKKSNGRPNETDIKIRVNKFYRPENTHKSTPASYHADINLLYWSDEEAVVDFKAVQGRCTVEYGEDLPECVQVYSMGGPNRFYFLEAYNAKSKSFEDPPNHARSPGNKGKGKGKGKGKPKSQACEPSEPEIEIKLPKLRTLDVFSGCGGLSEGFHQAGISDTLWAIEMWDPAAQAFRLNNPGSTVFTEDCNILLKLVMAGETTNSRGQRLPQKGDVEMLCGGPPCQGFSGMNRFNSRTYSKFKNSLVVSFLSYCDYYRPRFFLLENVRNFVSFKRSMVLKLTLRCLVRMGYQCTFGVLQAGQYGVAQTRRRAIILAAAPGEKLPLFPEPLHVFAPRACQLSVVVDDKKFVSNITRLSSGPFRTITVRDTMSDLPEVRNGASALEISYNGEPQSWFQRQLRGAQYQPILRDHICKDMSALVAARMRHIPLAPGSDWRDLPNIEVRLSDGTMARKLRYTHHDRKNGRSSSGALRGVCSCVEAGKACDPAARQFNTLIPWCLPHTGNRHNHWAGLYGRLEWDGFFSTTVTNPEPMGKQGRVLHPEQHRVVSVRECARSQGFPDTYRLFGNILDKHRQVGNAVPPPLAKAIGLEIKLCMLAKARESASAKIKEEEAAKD
SMILES,DNMT1 BioChemical (pIC50 category) (DNMT1; [2]),EC50 [1] [nM],"average pIC50 against DNMT1 (DNMT1; breaklight assay and/or SPA assay, repeated experimental runs)","IC50 (DNMT1; breaklight assay and/or SPA assay, repeated experimental runs, read-out: average pIC50 against DNMT1 (converted)) [nM]",IC50 (DNMT1; [3]) [nM]
"CCc1c(C#N)c(S[C@@H](C(N)=O)c2ccc(F)cc2)nc(N2CC[C@H](OP(=O)(O)O)C2)c1C#N [Example 426, (S)-1-(6-(((R)-2-amino-1-(4-fluorophenyl)-2-oxoethyl)thio)-3,5-dicyano-4-ethylpyridin-2-yl)pyrrolidin-3-yl dihydrogen phosphate]",–,> 31600,–,–,1000 to 31600
"CCc1c(C#N)c(SC(C(N)=O)c2ccc(F)cc2)nc(N2CC[C@H](O)C2)c1C#N (stereo partly drawn) [Example 427, 2-((3,5-dicyano-4-ethyl-6-((S)-3-hydroxypyrrolidin-1-yl)pyridin-2-yl)thio)-2-(4-fluorophenyl) acetamide]",D (Category D: ≥6.5),316 to 1000,–,–,–
CCc1c(C#N)c(SC(C(N)=O)c2c(F)cccc2F)nc(N2CC[C@H](O)C2)c1C#N (stereo partly drawn) [Example 428],–,316 to 1000,–,–,316 to 1000
CCc1c(C#N)c(SC(C(N)=O)c2cccc(F)c2F)nc(N2CC[C@H](O)C2)c1C#N (stereo partly drawn) [Example 429],–,316 to 1000,–,–,316 to 1000
"CCc1c(C#N)c(SC(C(N)=O)c2ccccc2)nc(N2CCC(N3CCC[C@H]3CO)CC2)c1C#N (stereo partly drawn) [Example 441, 2-((3,5-dicyano-4-ethyl-6-(4-((S)-2-(hydroxymethyl)pyrrolidin-1-yl)piperidin-1-yl)pyridin-2-yl)thio)-2-phenylacetamide]",D (Category D: ≥6.5),< 316,–,–,–
"CCc1c(C#N)c(SC(C(N)=O)c2ccccc2)nc(N2CCC(CN3CCCC3)CC2)c1C#N (stereo not drawn) [Example 445, 2-((3,5-dicyano-4-ethyl-6-(4-(pyrrolidin-1-ylmethyl)piperidin-1-yl)pyridin-2-yl)thio)-2-phenylacetamide]",D (Category D: ≥6.5),< 316,–,–,–
"CCc1c(C#N)c(SC(C(N)=O)c2ccccc2)nc(N2CCC(NCC(C)(C)OC)CC2)c1C#N (stereo not drawn) [Example 446, 2-((3,5-dicyano-4-ethyl-6-(4-((2-methoxy-2-methylpropyl)amino)piperidin-1-yl)pyridin-2-yl)thio)-2-phenylacetamide]",D (Category D: ≥6.5),< 316,–,–,–
"CCc1c(C#N)c(SC(C(N)=O)c2ccccc2)nc(N2CCC(NCC3(C)COC3)CC2)c1C#N (stereo not drawn) [Example 449, 2-((3,5-dicyano-4-ethyl-6-(4-(((3-methyloxetan-3-yl)methyl)amino)piperidin-1-yl)pyridin-2-yl)thio)-2-phenylacetamide]",D (Category D: ≥6.5),< 316,–,–,–
"CCc1c(C#N)c(SC(C(N)=O)c2ccccc2)nc(N2CCC(N3CCN(C)CC3)CC2)c1C#N (stereo not drawn) [Example 450, 2-((3,5-dicyano-4-ethyl-6-(4-(4-methylpiperazin-1-yl)piperidin-1-yl)pyridin-2-yl)thio)-2-phenylacetamide]",D (Category D: ≥6.5),< 316,–,–,–
"CCc1c(C#N)c(SC(C(N)=O)c2ccccc2)nc(N2CCC(N3[C@H](C)CC[C@@H]3C)CC2)c1C#N (stereo partly drawn) [Example 452, 2-((3,5-dicyano-6-(4-((2R,5S)-2,5-dimethylpyrrolidin-1-yl)piperidin-1-yl)-4-ethylpyridin-2-yl)thio)-2-phenylacetamide]",D (Category D: ≥6.5),< 316,–,–,–
"CCc1c(C#N)c(SC(C(N)=O)c2ccccc2)nc(N2CCC(N(C)C3CCC3)CC2)c1C#N (stereo not drawn) [Example 454, 2-((3,5-dicyano-6-(4-(cyclobutyl(methyl)amino)piperidin-1-yl)-4-ethylpyridin-2-yl)thio)-2-phenylacetamide]",D (Category D: ≥6.5),< 316,–,–,–
"CCc1c(C#N)c(SC(C(N)=O)c2ccccc2)nc(N2CCC(N3CC[C@H](F)C3)CC2)c1C#N (stereo partly drawn) [Example 457, 2-((3,5-dicyano-4-ethyl-6-(4-((S)-3-fluoropyrrolidin-1-yl)piperidin-1-yl)pyridin-2-yl)thio)-2-phenylacetamide]",D (Category D: ≥6.5),< 316,–,–,–
"CCc1c(C#N)c(SCc2ccc(N(C)S(C)(=O)=O)cc2)nc(N(C)CCNCC(C)(C)C)c1C#N [Example 458, N-(4-(((3,5-dicyano-4-ethyl-6-(methyl(2-(neopentylamino)ethyl)amino)pyridin-2-yl)thio)methyl)phenyl)-N-methylmethanesulfonamide]",D (Category D: ≥6.5),< 316,–,–,–

# Other lines, results leading:
DNMT1 BioChemical (pIC50 category) (DNMT1; [2]),EC50 [1] [nM],"average pIC50 against DNMT1 (DNMT1; breaklight assay and/or SPA assay, repeated experimental runs)","IC50 (DNMT1; breaklight assay and/or SPA assay, repeated experimental runs, read-out: average pIC50 against DNMT1 (converted)) [nM]",IC50 (DNMT1; [3]) [nM],SMILES
D (Category D: ≥6.5),< 316,–,–,–,"CCc1c(C#N)c(S[C@@H](C(N)=O)c2ccc(OC)cc2)nc(N2CC[C@H](O)C2)c1C#N [Example 422, (R)-2-((3,5-dicyano-4-ethyl-6-((S)-3-hydroxypyrrolidin-1-yl)pyridin-2-yl)thio)-2-(4-methoxyphenyl)acetamide]"
D (Category D: ≥6.5),316 to 1000,–,–,–,"CCc1c(C#N)c(S[C@@H](C(N)=O)c2ccc(Cl)cc2)nc(N2CC[C@H](O)C2)c1C#N [Example 424, (R)-2-(4-chlorophenyl)-2-((3,5-dicyano-4-ethyl-6-((S)-3-hydroxypyrrolidin-1-yl)pyridin-2-yl)thio)acetamide]"
D (Category D: ≥6.5),316 to 1000,> 6.5,158,–,CCc1c(C#N)c(S[C@@H](C(N)=O)c2ccc(F)cc2)nc(N2CC[C@H](O)C2)c1C#N [Example 425]
D (Category D: ≥6.5),316 to 1000,–,–,–,CCc1c(C#N)c(SC(C(N)=O)c2ccc(F)cc2F)nc(N2CC[C@H](O)C2)c1C#N (stereo partly drawn) [Example 430]
D (Category D: ≥6.5),< 316,–,–,–,"CCc1c(C#N)c(SC(C(N)=O)c2ccccc2)nc(N2CCC(N(C)CCO)CC2)c1C#N (stereo not drawn) [Example 443, 2-((3,5-dicyano-4-ethyl-6-(4-((2-hydroxyethyl)(methyl)amino)piperidin-1-yl)pyridin-2-yl)thio)-2-phenylacetamide]"
D (Category D: ≥6.5),< 316,–,–,–,"CCc1c(C#N)c(SC(C(N)=O)c2ccccc2)nc(N2CCC(N(C)CC(C)(C)O)CC2)c1C#N (stereo not drawn) [Example 444, 2-((3,5-dicyano-4-ethyl-6-(4-((2-hydroxy-2-methylpropyl)(methyl)amino)piperidin-1-yl)pyridin-2-yl)thio)-2-phenylacetamide]"
D (Category D: ≥6.5),< 316,–,–,–,"CCc1c(C#N)c(SC(C(N)=O)c2ccccc2)nc(N2CCC(NCC(C)(C)O)CC2)c1C#N (stereo not drawn) [Example 447, 2-((3,5-dicyano-4-ethyl-6-(4-((2-hydroxy-2-methylpropyl)amino)piperidin-1-yl)pyridin-2-yl)thio)-2-phenylacetamide]"
D (Category D: ≥6.5),< 316,–,–,–,"CCc1c(C#N)c(SC(C(N)=O)c2ccccc2)nc(N2CCC(NC3CCC3)CC2)c1C#N (stereo not drawn) [Example 448, 2-((3,5-dicyano-6-(4-(cyclobutylamino)piperidin-1-yl)-4-ethylpyridin-2-yl)thio)-2-phenylacetamide]"
D (Category D: ≥6.5),< 316,–,–,–,"CCc1c(C#N)c(SC(C(N)=O)c2ccccc2)nc(N2CCC(N3CCC[C@H]3C)CC2)c1C#N (stereo partly drawn) [Example 451, 2-((3,5-dicyano-4-ethyl-6-(4-((R)-2-methylpyrrolidin-1-yl)piperidin-1-yl)pyridin-2-yl)thio)-2-phenylacetamide]"
D (Category D: ≥6.5),< 316,–,–,–,"CCc1c(C#N)c(SC(C(N)=O)c2ccccc2)nc(N2CCC(N3CCC[C@@H]3C)CC2)c1C#N (stereo partly drawn) [Example 453, 2-((3,5-dicyano-4-ethyl-6-(4-((S)-2-methylpyrrolidin-1-yl)piperidin-1-yl)pyridin-2-yl)thio)-2-phenylacetamide]"
D (Category D: ≥6.5),< 316,–,–,–,"CCc1c(C#N)c(SC(C(N)=O)c2ccccc2)nc(N2CCC(NCc3ccccc3)CC2)c1C#N (stereo not drawn) [Example 455, 2-(6-(4-(benzylamino)piperidin-1-yl)-3,5-dicyano-4-ethylpyridin-2-ylthio)-2-phenylacetamide]"
D (Category D: ≥6.5),< 316,–,–,–,"CCc1c(C#N)c(SC(C(N)=O)c2ccccc2)nc(N2CCC(NCc3cccc(OC)n3)CC2)c1C#N (stereo not drawn) [Example 456, 2-((3,5-dicyano-4-ethyl-6-(4-(((6-methoxypyridin-2-yl)methyl)amino)piperidin-1-yl)pyridin-2-yl)thio)-2-phenylacetamide]"
D (Category D: ≥6.5),< 316,–,–,–,"CCc1c(C#N)c(SC(C(N)=O)c2ccccc2)nc(N(C)CCN2CCC[C@H]2C)c1C#N (stereo partly drawn) [Example 459, 2-((3,5-dicyano-4-ethyl-6-(methyl(2-((R)-2-methylpyrrolidin-1-yl)ethyl)amino)pyridin-2-yl)thio)-2-phenylacetamide]"
D (Category D: ≥6.5),< 316,–,–,–,"CCc1c(C#N)c(SC(C(N)=O)c2ccccc2)nc(N2CCC(N3CC[C@@H](F)C3)CC2)c1C#N (stereo partly drawn) [Example 460, 2-((3,5-dicyano-4-ethyl-6-(4-((R)-3-fluoropyrrolidin-1-yl)piperidin-1-yl)pyridin-2-yl)thio)-2-phenylacetamide]"
D (Category D: ≥6.5),< 316,–,–,–,CCc1c(C#N)c(SCc2ccc(N(C)S(C)(=O)=O)cc2)nc(N(C)CCN(C)CCOC)c1C#N [Example 461]
D (Category D: ≥6.5),< 316,–,–,–,"CCc1c(C#N)c(SC(C(N)=O)c2ccccc2)nc(N2CCC(N3[C@@H](C)CC[C@@H]3C)CC2)c1C#N (stereo partly drawn) [Example 462, 2-((3,5-dicyano-6-(4-((2S,5S)-2,5-dimethylpyrrolidin-1-yl)piperidin-1-yl)-4-ethylpyridin-2-yl)thio)-2-phenylacetamide]"
